The record followed here is patent publication US10239870B2, “Dopamine D3 receptor antagonists” (priority 2014, dated 2019).

Counter-ions that a name gives are not always drawn. A value given as a limit tells only on which side of the number the result lay.

The target in the first assay is T1, hD2 recombinant receptor (human dopamine receptor type 2, long variant, CHO-Gα16-hD2L membranes) (Homo sapiens (Human), UniProt P14416). Kind of assay: biochemical.
Conditions: not given
For the compound `Cn1c(SCCCN2CC[C@]3(C[C@@H]3c3ccc(C(F)(F)F)cc3)C2)nnc1-c1ccc(Oc2ccccc2)nc1` (single isomer, unassigned) [Example 265], the Ki was 589 nM.
On the same count and under the same terms, in the case of `Cn1c(SCCCN2CC[C@]3(C[C@@H]3c3ccc(C(F)(F)F)cc3)C2)nnc1-c1ccn2cnnc2c1` (single isomer, unassigned) [Example 269] it was 1000 nM; in that of `Cn1c(SCCCN2CC[C@]3(C[C@@H]3c3ccc(C(F)(F)F)cc3)C2)nnc1-c1ccnc(C(N)=O)c1` (single isomer, unassigned) [Example 191], 513 nM.
Turning to `Cn1c(SCCCN2CC[C@]3(C[C@@H]3c3ccc(C(F)(F)F)cc3)C2)nnc1-c1cccc(C(N)=O)n1` (single isomer, unassigned) [Example 193], the Ki was 437 nM.
The same measure, in the same setting: in the case of `Cn1c(SCCCN2CC[C@]3(C[C@@H]3c3ccc(C(F)(F)F)cc3)C2)nnc1-c1cncc(C(N)=O)c1` (single isomer, unassigned) [Example 192] it was 437 nM; in that of `Cn1c(SCCCN2CC[C@]3(C[C@@H]3c3ccc(C(F)(F)F)cc3)C2)nnc1-c1ccnc(C#N)c1` (single isomer, unassigned) [Example 178], 794 nM; in that of `Cn1c(SCCCN2CC[C@]3(C[C@@H]3c3ccc(C(F)(F)F)cc3)C2)nnc1-c1ccc(-c2nnn[nH]2)cc1` (single isomer, unassigned) [Example 273], 3160 nM.
For `Cc1cccnc1-c1nnc(SCCCN2CC[C@]3(C[C@@H]3c3ccc(C(F)(F)F)cc3)C2)n1C` (single isomer, unassigned) [Example 170, dihydrochloride], the Ki is 1410 nM.
As for `Cn1c(SCCCN2CC[C@]3(C[C@@H]3c3ccc(C(F)(F)F)cc3)C2)nnc1-c1ccc2[nH]cnc2n1` (single isomer, unassigned) [Example 272], the inhibition constant Ki is 95.5 nM.
Same read-out and setting: to `Cc1nc(-c2ccc(-c3nnc(SCCCN4CC[C@]5(C[C@@H]5c5ccc(C(F)(F)F)cc5)C4)n3C)cc2)no1` (single isomer, unassigned) [Example 275] belongs 479 nM; to `Cc1nccnc1-c1nnc(SCCCN2CC[C@]3(C[C@@H]3c3ccc(C(F)(F)F)cc3)C2)n1C` (single isomer, unassigned) [Example 227, hydrochloride], 575 nM.
`Cn1c(SCCCN2CC[C@]3(C[C@@H]3c3ccc(C(F)(F)F)cc3)C2)nnc1-c1cnc(-c2cccnc2)o1` (single isomer, unassigned) [Example 263]: the Ki is 589 nM.
For `Cn1c(SCCCN2CC[C@]3(C[C@@H]3c3ccc(C(F)(F)F)cc3)C2)nnc1N1CCOCC1` (single isomer, unassigned) [Example 118, hydrochloride], the Ki was 251 nM.
`Cn1c(SCCCN2CC[C@]3(C[C@@H]3c3ccc(C(F)(F)F)cc3)C2)nnc1-c1ccc(-n2cnnc2)cc1` (single isomer, unassigned) [Example 276]: the Ki was 166 nM.
In the case of `Cn1c(SCCCN2CC[C@]3(C[C@@H]3c3ccc(C(F)(F)F)cc3)C2)nnc1-c1ccc(CC#N)cc1` (single isomer, unassigned) [Example 286], the Ki is 468 nM.
Take `Cn1c(SCCCN2CC[C@@]3(C[C@H]3c3ccc(C(F)(F)F)cc3F)C2)nnc1-c1ccc(C(N)=O)nc1` (single isomer, unassigned) [Example 186]: the inhibitory constant (Ki) was 4900 nM.
For the compound `Cn1c(SCCCN2CC[C@]3(C[C@@H]3c3ccc(C(F)(F)F)cc3F)C2)nnc1-c1ccc(C(N)=O)nc1` (single isomer, unassigned) [Example 185], the Ki was 1230 nM.
`Cc1ncoc1-c1nnc(CCCCN2CC[C@]3(C[C@@H]3c3ccc(C(F)(F)F)cc3)C2)n1C` (single isomer, unassigned) [Example 302, hydrochloride]: the Ki was 1150 nM.
Take `Cn1c(SCCCN2CC[C@]3(C[C@@H]3c3ccc(C(F)(F)F)cc3)C2)nnc1-c1ccc(C(N)=O)cn1` (single isomer, unassigned) [Example 189, dihydrochloride]: the Ki is 437 nM.
`Cn1c(SCCCN2CC[C@]3(C[C@@H]3c3ccc(C(F)(F)F)cc3F)C2)nnc1-c1ccc(C(N)=O)cn1` (single isomer, unassigned) [Example 190]: the Ki is 275 nM.

Another assay has as its target T1, hD2 recombinant receptor (human dopamine receptor type 2, long variant, CHO-Gα16-hD2L membranes).
Experiment: not given
The note with it: displacement of 0.08 nM [3H]-Spiperone.
For `Cn1c(SCCCN2CC[C@]3(CC3c3ccc(C(F)(F)F)cc3F)C2)nnc1-c1cnccn1` (stereo partly drawn) [Example 221, (1S,3S/1R,3R)-1-[2-fluoro-4-(trifluoromethyl)phenyl]-5-(3-{[4-methyl-5-(pyrazin-2-yl)-4H-1,2,4-triazol-3-yl]sulfanyl}propyl)-5-azaspiro[2.4]heptane], the “D2 pKi” value was 6.37.

The target in a further assay is hD2 recombinant receptor (human dopamine receptor type 2, long variant, CHO-Gα16-hD2L cells) (Homo sapiens (Human), UniProt P14416). Kind of assay: cell-based. Particulars: D2 fpKi, functional pKi; antagonism of dopamine EC80 calcium response (FLIPR).
Turning to `Cn1c(SCCCN2CC[C@]3(C[C@@H]3c3ccc(C(F)(F)F)cc3)C2)nnc1N1CCOCC1` (single isomer, unassigned) [Example 118, hydrochloride], the Ki is 41.7 nM.
Same read-out and setting: in the case of `Cn1c(SCCCN2CC[C@]3(C[C@@H]3c3ccc(C(F)(F)F)cc3F)C2)nnc1C1CCOCC1` (single isomer, unassigned) [Example 79, hydrochloride] it was 363 nM; in that of `Cc1ncoc1-c1nnc(SCCCN2CCC3(CCC3c3ccccc3)C2)n1C` (single isomer, unassigned) [Example 321, (1R,4S or 1S,4R or 1S,4S or 1R,4R)-6-(3-{[4-methyl-5-(4-methyl-1,3-oxazol-5-yl)-4H-1,2,4-triazol-3-yl]sulfanyl}propyl)-1-phenyl-6-azaspiro[3.4]octane hydrochloride], 2240 nM.
Regarding `Cn1c(CCCCN2CC[C@]3(CC3c3ccc(C(F)(F)F)cc3)C2)nnc1C1CCOCC1` (stereo partly drawn) [Example 296, (1S,3S/1R,3R)-5-{4-[4-methyl-5-(oxan-4-yl)-4H-1,2,4-triazol-3-yl]butyl}-1-[4-(trifluoromethyl)phenyl]-5-azaspiro[2.4]heptane], the Ki is greater than 10000 nM.
As for `CC(=O)N1CCC(c2nnc(SCCCN3CC[C@]4(C[C@@H]4c4ccc(C(F)(F)F)cc4)C3)n2C)CC1` [Example 99, 1-{4-[4-methyl-5-({3-[(1R,3S/1S,R3)-1-[4-(trifluoromethyl)phenyl]-5-azaspiro[2.4]heptan-5-yl]propyl}sulfanyl)-4H-1,2,4-triazol-3-yl]piperidin-1-yl}ethan-1-one], the Ki is 2240 nM.
The same measure, in the same setting: in the case of `Cn1c(SCCCN2CC[C@@]3(C[C@@H]3c3ccc(C(F)(F)F)cc3F)C2)nnc1C1CCOCC1` (single isomer, unassigned) [Example 74, (1S,3R or 1R,3S)-1-[2-fluoro-4-(trifluoromethyl)phenyl]-5-(3-{[4-methyl-5-(oxan-4-yl)-4H-1,2,4-triazol-3-yl]sulfanyl}propyl)-5-azaspiro[2.4]heptane hydrochloride] it was 1260 nM; in that of `Cn1c(SCCCN2CC[C@]3(CC3c3ccc(C(F)(F)F)cc3F)C2)nnc1-c1cnccn1` (stereo partly drawn) [Example 221, (1S,3S/1R,3R)-1-[2-fluoro-4-(trifluoromethyl)phenyl]-5-(3-{[4-methyl-5-(pyrazin-2-yl)-4H-1,2,4-triazol-3-yl]sulfanyl}propyl)-5-azaspiro[2.4]heptane], 87.1 nM.
On to `Cn1c(OCCCN2CC[C@]3(C[C@H]3c3ccc(C(F)(F)F)cc3)C2)nnc1C1CCOCC1` [Example 303, (1S,3S/1R,3R)-5-(3-{[4-methyl-5-(oxan-4-yl)-4H-1,2,4-triazol-3-yl]oxy}-propyl)-1-[4-(trifluoromethyl)phenyl]-5-azaspiro[2.4]heptane], for which the Ki was greater than 10000 nM.
On to `Cn1c(SCCCN2CC[C@]3(CC3c3ccc(C(F)(F)F)cc3F)C2)nnc1C1CCOCC1` (single isomer, unassigned) [Example 76], for which the Ki is 708 nM.
